Assay results from ChEMBL document CHEMBL6074634, “Design, synthesis, and evaluation of novel oxyacanthine derivatives for anti-SARS-CoV-2 activity” (Bioorg Med Chem Lett, 2024).
Active and inactive are the calls of the source. No cut-off for these calls is given here.

What was measured:
[1] = AUC (0 to 24 hrs) in male ICR mouse at 2.5 mg/kg, iv measured upto 24 hrs by LC-MS/MS analysis; type: ADME, organism-based; settings: in vivo
[2] = Half life in male ICR mouse at 10 mg/kg, po measured upto 24 hrs by LC-MS/MS analysis; type: ADME, organism-based; settings: in vivo
[3] = Oral bioavailability in male ICR mouse at 10 mg/kg measured upto 24 hrs by LC-MS/MS analysis; type: ADME, organism-based; settings: in vivo
[4] = Tmax in male ICR mouse at 10 mg/kg, po measured upto 24 hrs by LC-MS/MS analysis; type: ADME, organism-based; settings: in vivo
[5] = Half life in male ICR mouse at 2.5 mg/kg, iv measured upto 24 hrs by LC-MS/MS analysis; type: ADME, organism-based; settings: in vivo
[6] = AUC (0 to 24 hrs) in male ICR mouse at 10 mg/kg, po measured upto 24 hrs by LC-MS/MS analysis; type: ADME, organism-based; settings: in vivo
[7] = Cmax in male ICR mouse at 10 mg/kg, po measured upto 24 hrs by LC-MS/MS analysis; type: ADME, organism-based; settings: in vivo
[8] = Cytotoxicity against African green monkey Vero E6 cells assessed as cell viability by CCK-8 assay; type: toxicity, cell-based, Vero C1008; settings: African green monkey (Chlorocebus sabaeus)
[9] = test system: Severe acute respiratory syndrome coronavirus 2; assay: Inhibition of SARS CoV-2 envelope (2-E) channel at 100 uM
[10] = Toxicity in mouse assessed as animal death at 10 to 200 mg/kg administered for 10 days; type: organism-based; settings: in vivo, 240 h, dose 10-200 mg/kg, time 10 day
[11] = Toxicity in mouse assessed as body weight loss at 10 to 200 mg/kg administered for 10 days; type: organism-based; settings: in vivo, 240 h, dose 10-200 mg/kg, time 10 day
[12] = Inhibition of SARS CoV-2 envelope (2-E) channel; design: species or system Severe acute respiratory syndrome coronavirus 2

In the case of COc1cc2c3cc1Oc1c(OC)c(OC)cc4c1[C@H](Cc1ccc(cc1)Oc1cc(ccc1O)C[C@H]3N(C)CC2)N(C)CC4 [AROMOLINE], the AUC(0-t) at 24 h [1] is reported as 1300 ng·h/mL, the half-life [2] is reported as 6.39 h and the bioavailability [3] is reported as 34.5%. The Tmax [4] was 0.33 h, the half-life [5] was 13.2 h and the AUC(0-t) at 24 h [6] was 1790 ng·h/mL. For the same compound, the Cmax [7] was 260 ng/mL and the IC50 [8] was 29.9 µM.
For COc1cc2c3cc1Oc1c(OC)c(OC)cc4c1[C@H](Cc1ccc(cc1)Oc1cccc(c1)C[C@H]3N(C)CC2)N(C)CC4, the IC50 [8] was 17.1 µM.
With COc1cc2c3cc1Oc1c(OC)c(OC)cc4c1[C@H](Cc1ccc(cc1)Oc1cc(ccc1C1CC1)C[C@H]3N(C)CC2)N(C)CC4 the IC50 [8] was 10.9 µM.
For COC(=O)c1ccc2cc1Oc1ccc(cc1)C[C@H]1c3c(cc(OC)c(OC)c3Oc3cc4c(cc3OC)CCN(C)[C@@H]4C2)CCN1C, the IC50 [8] was 29.5 µM.
Compound COc1cc2c3cc1Oc1c(OC)c(OC)cc4c1[C@H](Cc1ccc(cc1)Oc1cc(ccc1C(=O)Nc1ccc(C(F)(F)F)cc1)C[C@H]3N(C)CC2)N(C)CC4 has an IC50 [8] of 10.5 µM.
With COc1cc2c3cc1Oc1c(OC)c(OC)cc4c1[C@H](Cc1ccc(cc1)OC1C=C(Cc5[nH]c(=O)oc51)C[C@H]3N(C)CC2)N(C)CC4 (some centres undefined) the IC50 [8] was 14.8 µM.
COc1cc2c3cc1Oc1c(OC)c(OC)cc4c1[C@H](Cc1ccc(cc1)Oc1cc(ccc1C(=O)NC1CC1)C[C@H]3N(C)CC2)N(C)CC4 showed an AUC(0-t) at 24 h [1] of 1840 ng·h/mL, a half-life [2] of 16 h and a bioavailability [3] of 68.1%. The Tmax [4] was 1 h, the half-life [5] was 21.1 h and the AUC(0-t) at 24 h [6] was 5000 ng·h/mL. The Cmax [7] was 313 ng/mL, the inhibition [9] was “inactive” and the IC50 [8] was 62.3 µM.
In the case of COc1cc2c3cc1Oc1c(OC)c(OC)cc4c1[C@H](Cc1ccc(cc1)Oc1cc(ccc1C(N)=O)C[C@H]3N(C)CC2)N(C)CC4, the AUC(0-t) at 24 h [1] is reported as 4120 ng·h/mL, the Activity [10] is reported as “Non-toxic” and the half-life [2] is reported as 12.5 h. For the same compound, the bioavailability [3] was 77.4%, the Tmax [4] was 1.75 h and the half-life [5] was 17.1 h. For the same compound, the Activity [11] was “Non-toxic”, the AUC(0-t) at 24 h [6] was 12800 ng·h/mL and the Cmax [7] was 854 ng/mL. The IC50 [12] was 0.78 µM and the IC50 [8] was 63.2 µM.
Work on COc1cc2c3cc1Oc1c(OC)c(OC)cc4c1[C@H](Cc1ccc(cc1)Oc1cc(ccc1C(=O)Nc1ccccc1)C[C@H]3N(C)CC2)N(C)CC4 yielded an IC50 [8] of 6.88 µM.
For COc1cc2c3cc1Oc1c(OC)c(OC)cc4c1[C@H](Cc1ccc(cc1)Oc1cc(ccc1C(=O)Nc1cccnc1)C[C@H]3N(C)CC2)N(C)CC4, the IC50 [8] was 26.4 µM.
COc1cc2c3cc1Oc1c(OC)c(OC)cc4c1[C@H](Cc1ccc(cc1)Oc1cc(ccc1C)C[C@H]3N(C)CC2)N(C)CC4 showed an IC50 [8] of 10.3 µM.
COc1cc2c3cc1Oc1c(OC)c(OC)cc4c1[C@H](Cc1ccc(cc1)Oc1cc(ccc1C(C)=O)C[C@H]3N(C)CC2)N(C)CC4 showed an IC50 [8] of 29.4 µM.
Work on COc1cc2c3cc1Oc1c(OC)c(OC)cc4c1[C@H](Cc1ccc(cc1)Oc1cc(ccc1C(=O)N1CCCCC1)C[C@H]3N(C)CC2)N(C)CC4 yielded an IC50 [8] of 24.6 µM.
Work on COc1ccc(NC(=O)c2ccc3cc2Oc2ccc(cc2)C[C@H]2c4c(cc(OC)c(OC)c4Oc4cc5c(cc4OC)CCN(C)[C@@H]5C3)CCN2C)cc1 yielded an IC50 [8] of 10.6 µM.
In the case of COc1cc2c3cc1Oc1c(OC)c(OC)cc4c1[C@H](Cc1ccc(cc1)Oc1cc(cc([N+](=O)[O-])c1)C[C@H]3N(C)CC2)N(C)CC4, the IC50 [8] is reported as 24.3 µM.
For COc1cc2c3cc1Oc1c(OC)c(OC)cc4c1[C@H](Cc1ccc(cc1)Oc1cc(ccc1C(=O)NC15CC6CC(CC(C6)C1)C5)C[C@H]3N(C)CC2)N(C)CC4, the IC50 [8] was 4.9 µM.
In the case of COc1cc2c3cc1Oc1c(OC)c(OC)cc4c1[C@H](Cc1ccc(cc1)Oc1cc(ccc1C(=O)NC1CCCC1)C[C@H]3N(C)CC2)N(C)CC4, the IC50 [8] is reported as 22.5 µM.
In the case of COc1cc2c3cc1Oc1c(OC)c(OC)cc4c1[C@H](Cc1ccc(cc1)Oc1cc(ccc1C(=O)NC1CCC1)C[C@H]3N(C)CC2)N(C)CC4, the IC50 [8] is reported as 33.9 µM.
COc1cc2c3cc1Oc1c(OC)c(OC)cc4c1[C@H](Cc1ccc(cc1)Oc1cc(ccc1C(=O)NC(C)C)C[C@H]3N(C)CC2)N(C)CC4 gave an IC50 [8] of 26.4 µM.
C=CC(=O)Nc1ccc2cc1Oc1ccc(cc1)C[C@H]1c3c(cc(OC)c(OC)c3Oc3cc4c(cc3OC)CCN(C)[C@@H]4C2)CCN1C gave an IC50 [8] of 31.1 µM.
Compound CCCCCNC(=O)c1ccc2cc1Oc1ccc(cc1)C[C@H]1c3c(cc(OC)c(OC)c3Oc3cc4c(cc3OC)CCN(C)[C@@H]4C2)CCN1C has an IC50 [8] of 22.5 µM.
C=C(C)c1ccc2cc1Oc1ccc(cc1)C[C@H]1c3c(cc(OC)c(OC)c3Oc3cc4c(cc3OC)CCN(C)[C@@H]4C2)CCN1C showed an IC50 [8] of 6.13 µM.
With CNC(=O)c1ccc2cc1Oc1ccc(cc1)C[C@H]1c3c(cc(OC)c(OC)c3Oc3cc4c(cc3OC)CCN(C)[C@@H]4C2)CCN1C the IC50 [8] was 66.7 µM.
For COc1cc2c3cc1Oc1c(OC)c(OC)cc4c1[C@H](Cc1ccc(cc1)Oc1cc(ccc1C(=O)NCCOCCO)C[C@H]3N(C)CC2)N(C)CC4, the IC50 [8] was 123 µM.
